Measurements reported in US20140135310A1, “SULPHONAMIDE DERIVATIVES OF ALICYCLIC AMINES FOR THE TREATMENT OF CENTRAL NERVOUS SYSTEM DISEASES” (Adamed Sp. z o.o., priority 2011, published 2014).

Tests used:
[1] = biological target: T1, 5-HT1A receptor (rat hippocampus) (Rattus norvegicus, UniProt P19327); assay: Radioligand binding assay, serotoninergic 5-HT1A receptors; conditions: binding assay result in %, Table 5a
T1 construct: hippocampus; from tissue; host or cells: rat hippocampus
T1 sequence (P19327 1-422): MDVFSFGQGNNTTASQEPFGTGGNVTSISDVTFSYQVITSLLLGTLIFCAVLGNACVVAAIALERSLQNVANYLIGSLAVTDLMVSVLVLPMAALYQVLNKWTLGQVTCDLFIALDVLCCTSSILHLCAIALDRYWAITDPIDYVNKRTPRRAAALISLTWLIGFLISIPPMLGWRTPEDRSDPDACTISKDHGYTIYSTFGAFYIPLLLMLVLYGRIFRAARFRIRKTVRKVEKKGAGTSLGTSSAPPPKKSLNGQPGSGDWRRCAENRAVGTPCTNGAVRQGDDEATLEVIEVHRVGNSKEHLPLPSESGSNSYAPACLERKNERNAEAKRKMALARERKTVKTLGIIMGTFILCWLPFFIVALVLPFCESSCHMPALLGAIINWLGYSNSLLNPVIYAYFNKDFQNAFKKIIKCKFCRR

[2] = biological target: T2, 5-HT7 receptor (Homo sapiens, UniProt P34969); assay: Radioligand binding assay, serotoninergic 5-HT7 receptors; conditions: binding assay result in %, Table 5a
T2 construct: purchased PerkinElmer
Outline: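 Ki values used the Cheng–Prusoff equation, with KD from Scatchard analysis, applied to IC50 from Hill fits of human 5-HT7 radioligand competition curves. Bound radioligand was counted by scintillation, and excess unlabelled ligand set the non-specific binding.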

[3] = tested on: α1 adrenergic receptors (rat cerebral cortex); assay: Radioligand binding assay, adrenergic α1 receptors; conditions: test compound 1×10^−6 M
Outline: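 Values derive from radioligand displacement, with non-specific binding defined by excess cold ligand and detection by scintillation. Hill-fit IC50s were converted to Ki via Cheng-Prusoff using Scatchard-derived Kd; percent inhibition of control specific binding also reported.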

[4] = biological target: T3, M3 muscarinic receptors (Homo sapiens, UniProt P20309); assay: Radioligand binding assay, muscarinic M3 receptors; conditions: test compound 1×10^−6 M
T3 construct: expressed in transfected cells; host or cells: CHO cells
Source text: (§1) The specific ligand binding to the receptors is defined as the difference between the total binding and the non-specific binding determined in the presence of the excess of unlabelled ligand.
(§2) The results are expressed as a percent of control specific binding ((measured specific binding/control specific binding)×100) and as a percent inhibition of control specific binding (100−((measured specific binding/control specific binding)×100)) obtained in the presence of the test compounds. The specific ligand binding to the receptors is defined as the difference between the total binding and the nonspecific binding determined in the presence of an excess of unlabelled ligand. Scintillation counting was the method of detection of ligand binding. The IC50 values (concentration causing a half-maximal inhibition of control specific binding) were determined by non-linear regression analysis of the competition curves generated with mean replicate values using Hill equation curve fitting (Y=D+[(A−D)/(1+(C/C50)nH)], where Y=specific binding, D=minimum specific binding, A=maximum specific binding, C=compound concentration, C50=IC50, and nH=slope factor). This analysis was performed using a software developed at Cerep (Hill software) and validated by comparison with data generated by the commercial software SigmaPlot® 4.0 for Windows® (© 1997 by SPSS Inc.). The inhibition constants (Ki) were calculated using the Cheng Prusoff equation (Ki=IC50/(1+(L/KD)), where L=concentration of radioligand in the assay, and KD=affinity of the radioligand for the receptor). A scatchard plot was used to determine the Kd.
Experimental conditions for tests are given in Table 10, and results of tests for representative compounds are given in Table 11.

[5] = biological target: T4, serotonin transporter (SERT) (Homo sapiens, UniProt P31645); assay: Radioligand binding assay, serotonin transporter (SERT); conditions: for inhibition at 1 µM / SERT [%]: binding assay, test compound 1×10^−6 M; for Ki: read-out: Inhibition constants Ki for SERT, SERT
T4 construct: expressed in transfected cells; host or cells: CHO cells
Outline: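 Values are derived from competition curves fitted by the Hill equation to give IC50, then converted to Ki by Cheng-Prusoff with radioligand Kd from Scatchard analysis. Specific binding equals total minus non-specific (excess cold ligand), counted by scintillation, and is also expressed as percent inhibition of control.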

[6] = tested on: σ receptors; assay: Radioligand binding assay, σ receptors; conditions: rat cerebral cortex, [3H]DTG 8 nM
Source text: as §1
as §2, with “This analysis was performed using a software developed at Cerep (Hill software) and validated by comparison with data generated by the commercial software SigmaPlot® 4.0 for Windows® (© 1997 by SPSS Inc.).” left out

T2 sequence (P34969 whole entry): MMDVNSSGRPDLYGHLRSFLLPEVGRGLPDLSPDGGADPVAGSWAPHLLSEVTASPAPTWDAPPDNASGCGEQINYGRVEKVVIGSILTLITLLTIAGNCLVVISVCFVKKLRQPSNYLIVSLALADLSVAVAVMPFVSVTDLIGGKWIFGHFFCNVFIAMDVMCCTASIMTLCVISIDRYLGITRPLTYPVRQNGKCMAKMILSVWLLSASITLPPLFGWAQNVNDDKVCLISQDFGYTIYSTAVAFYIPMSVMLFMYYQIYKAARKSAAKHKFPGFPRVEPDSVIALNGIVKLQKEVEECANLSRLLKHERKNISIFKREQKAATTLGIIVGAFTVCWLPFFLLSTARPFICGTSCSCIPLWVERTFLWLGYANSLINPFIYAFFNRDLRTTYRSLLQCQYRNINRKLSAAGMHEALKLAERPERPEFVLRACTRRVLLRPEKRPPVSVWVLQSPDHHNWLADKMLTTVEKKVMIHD
T4 sequence (P31645 whole entry): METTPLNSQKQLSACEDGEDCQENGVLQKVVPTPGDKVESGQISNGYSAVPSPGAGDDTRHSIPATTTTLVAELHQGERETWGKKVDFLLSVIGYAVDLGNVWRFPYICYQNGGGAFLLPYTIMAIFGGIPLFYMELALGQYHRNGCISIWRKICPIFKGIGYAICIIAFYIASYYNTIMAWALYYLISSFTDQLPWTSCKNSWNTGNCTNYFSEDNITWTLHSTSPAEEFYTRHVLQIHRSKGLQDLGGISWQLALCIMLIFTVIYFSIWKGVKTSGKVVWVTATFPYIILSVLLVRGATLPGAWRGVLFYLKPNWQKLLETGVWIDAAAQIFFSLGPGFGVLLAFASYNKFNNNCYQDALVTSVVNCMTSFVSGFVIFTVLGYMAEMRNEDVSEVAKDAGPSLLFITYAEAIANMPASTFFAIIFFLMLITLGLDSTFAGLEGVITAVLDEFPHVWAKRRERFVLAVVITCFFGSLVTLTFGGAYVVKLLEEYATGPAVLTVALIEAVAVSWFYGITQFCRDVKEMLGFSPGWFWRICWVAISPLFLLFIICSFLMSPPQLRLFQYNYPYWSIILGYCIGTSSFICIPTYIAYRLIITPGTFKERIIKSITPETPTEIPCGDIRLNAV
T3 sequence (P20309 whole entry): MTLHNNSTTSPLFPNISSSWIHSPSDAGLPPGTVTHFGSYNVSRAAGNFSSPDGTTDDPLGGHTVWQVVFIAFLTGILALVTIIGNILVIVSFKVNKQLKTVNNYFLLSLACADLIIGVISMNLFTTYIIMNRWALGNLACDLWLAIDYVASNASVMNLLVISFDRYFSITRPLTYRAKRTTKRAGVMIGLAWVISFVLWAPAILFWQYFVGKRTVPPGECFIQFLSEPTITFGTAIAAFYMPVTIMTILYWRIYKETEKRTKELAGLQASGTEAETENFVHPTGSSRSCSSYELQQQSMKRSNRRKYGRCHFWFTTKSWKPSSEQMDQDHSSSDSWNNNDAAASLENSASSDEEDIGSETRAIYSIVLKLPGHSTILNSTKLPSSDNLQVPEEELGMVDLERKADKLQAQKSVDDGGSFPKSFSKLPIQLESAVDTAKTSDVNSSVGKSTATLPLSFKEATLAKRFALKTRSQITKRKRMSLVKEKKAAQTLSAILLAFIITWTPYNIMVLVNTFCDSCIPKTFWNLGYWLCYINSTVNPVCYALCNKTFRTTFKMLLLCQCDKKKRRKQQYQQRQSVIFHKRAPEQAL

Row | 5-HT1A [%] [1] | 5-HT7 [%] [2] | M3 [%] [4] | SERT [%] [5] | SMILES | inhibition at 1 µM [1] | inhibition at 1 µM [2] | α1 [%] [3] | inhibition at 1 µM [4] | inhibition at 1 µM [5] | σ [%] [6] | Ki [5]
1 | – | – | – | – | O=S(=O)(NCC1CN(CCOc2cccc3c2OCCO3)C1)c1cc2ccccc2o1 [Compound 186, N-[[1-[2-(2,3-Dihydro-1,4-benzodioxin-5-yloxy)ethyl]azetidin-3-yl]methyl]-benzofuran-2-sulphonamide] | 98% | 97% | 80% | -9% | 39% | 84% | –
2 | – | – | – | – | O=S(=O)(NC1CCN(CCCc2c[nH]c3ccc(F)cc23)C1)c1ccc(F)cc1 (stereo not shown) [Compound 75, 4-Fluoro-N-[1-[3-(5-fluoro-1H-indol-3-yl)propyl]pyrrolidin-3-yl]benzene-sulphonamide] | 100% | 90% | 45% | 17% | 103% | 75% | 1.5 nM
3 | – | – | – | – | O=S(=O)(NC1CCN(CCCc2c[nH]c3ccc(Cl)cc23)C1)c1cccc(Cl)c1 (stereo not shown) [Compound 84, 3-Chloro-N-[1-[3-(5-chloro-1H-indol-3-yl)propyl]pyrrolidin-3-yl]benzenesulphonamide] | 99% | 98% | 51% | 3% | 104% | 59% | 2.6 nM
4 | – | – | – | – | O=S(=O)(NCC1CN(CCCc2noc3cc(F)ccc23)C1)c1ccc(-c2ccccc2)cc1 [Compound 135, N-[[1-[3-(6-Fluoro-1,2-benzoxazol-3-yl)propyl]azetidin-3-yl]methyl]-4-phenyl-benzenesulphonamide] | 77% | 97% | 88% | 19% | 68% | 94% | –
5 | – | – | – | – | O=S(=O)(NC1CCN(CCCc2noc3cc(F)ccc23)C1)c1ccc(Cl)c(F)c1 (stereo not shown) [Compound 11, 4-Chloro-3-fluoro-N-[1-[3-(6-fluoro-1,2-benzoxazol-3-yl)propyl]-pyrrolidin-3-yl]benzene-sulphonamide] | 60% | 97% | 70% | 3% | -6% | 74% | –
6 | – | – | – | – | O=S(=O)(NC1CN(CCOc2cccc3[nH]ccc23)C1)c1cccc(Cl)c1 [Compound 47, 3-Chloro-N-[1-[2-(1H-indol-4-yloxy)ethyl]azetidin-3-yl]benzene-sulphonamide] | 98% | 100% | 71% | -8% | 6% | 44% | –
7 | 100% | 98% | 13% | 83% | O=S(=O)(NC1CCN(CCOc2cccc3ccccc23)C1)c1cccc(O)c1 (stereo not shown) [Compound 115, 3-Hydroksy-N-[1-[2-(1-naphthyloxy)ethyl]pyrrolidin-3-yl]benzenesulphonamide] | – | – | 24% | – | – | 69% | –
8 | – | – | – | – | Cc1cccc(S(=O)(=O)NC2CN(CCOc3cccc4[nH]ccc34)C2)c1 [Compound 48, N-[1-[2-(1H-Indol-4-yloxy)ethyl]azetidin-3-yl]-3-methyl-benzenesulphonamide] | 100% | 98% | 87% | 1% | -3% | 18% | –
9 | – | – | – | – | Cc1c(S(=O)(=O)NCC2CCN(CCCc3noc4cc(F)ccc34)C2)sc2ccc(Cl)cc12 (stereo not shown) [Compound 238, 5-Chloro-N-[[1-[3-(6-fluoro-1,2-benzoxazol-3-yl)propyl]pyrrolidin-3-yl]methyl]-3-methyl-benzothiophene-2-sulphonamide] | 71% | 94% | 82% | 26% | 64% | 95% | –
10 | 98% | 96% | −6% | 3% | O=S(=O)(NC1CN(CCOc2cccc3c2OCCO3)C1)c1cccc(F)c1 [Compound 89, N-[1-[2-(2,3-Dihydro-1,4-benzodioxan-8-yloxy)ethyl]azetidin-3-yl]-3-fluoro-benzenesulphonamide] | – | – | 45% | – | – | 24% | –
11 | – | – | – | – | O=S(=O)(NC1CCN(CCCc2c[nH]c3ccc(Cl)cc23)C1)c1cccc(F)c1 (stereo not shown) [Compound 82, N-[1-[3-(5-Chloro-1H-indol-3-yl)propyl]pyrrolidin-3-yl]-3-fluoro-benzene-sulphonamide] | 99% | 96% | 43% | 9% | 100% | 63% | 1.3 nM
12 | – | – | – | – | Cc1c(S(=O)(=O)NC2CCN(CCCc3noc4cc(F)ccc34)C2)sc2ccc(Cl)cc12 (stereo not shown) [Compound 29, 5-Chloro-N-[1-[3-(6-fluoro-1,2-benzoxazol-3-yl)propyl]pyrrolidin-3-yl]-3-methyl-benzothiophene-2-sulphonamide] | 70% | 52% | 18% | 30% | 44% | 60% | –
13 | – | – | – | – | Cc1cc(S(=O)(=O)NCC2CCN(CCOc3cccc4c3OCCO4)C2)c(C)s1 (stereo not shown) [Compound 312, N-[[1-[2-(2,3-Dihydro-1,4-benzodioxin-5-yloxy)ethyl]pyrrolidin-3-yl]methyl]-2,5-dimethylthiophene-3-sulphonamide] | 98% | 86% | 65% | 10% | 87% | 92% | –
14 | – | – | – | – | O=S(=O)(NC1CCN(CCCc2c[nH]c3ccc(F)cc23)C1)c1cccc2ccccc12 (stereo not shown) [Compound 79, N-[1-[3-(5-Fluoro-1H-indol-3-yl)propyl]pyrrolidin-3-yl]naphthalene-1-sulphonamide] | 99% | 96% | 37% | -3% | 105% | 67% | 0.7 nM
15 | – | – | – | – | O=S(=O)(NC1CN(CCOc2cccc3[nH]ccc23)C1)c1ccc(F)cc1 [Compound 46, 4-Fluoro-N-[1-[2-(1H-indol-4-yloxy)ethyl]azetidin-3-yl]benzene-sulphonamide] | 101% | 100% | 85% | -13% | 7% | 15% | –

Row | SMILES | 5-HT1A [%] [1] | 5-HT7 [%] [2] | M3 [%] [4] | SERT [%] [5] | inhibition at 1 µM [1] | inhibition at 1 µM [2] | α1 [%] [3] | inhibition at 1 µM [4] | inhibition at 1 µM [5] | σ [%] [6] | Ki [5]
16 | CC1(C)Cc2cccc(OCCN3CCC(NS(=O)(=O)c4ccc5ccccc5c4)CC3)c2O1 [Compound 110, N-[1-[2-[(2,2-Dimethyl-3H-benzofuran-7-yl)oxy]ethyl]-4-piperidine]naphthalene-2-sulphonamide] | 95% | 99% | −7% | 39% | – | – | 45% | – | – | 56% | –
